Results from ChEMBL document CHEMBL1132078, “Bicyclo[3.2.1]octanes: synthesis and inhibition of binding at the dopamine and serotonin transporters” (Bioorg Med Chem Lett, 1999).

Tests used:
[1] = molecular target: Sodium-dependent dopamine transporter (Macaca fascicularis, UniProt Q9GJT6); experiment: Inhibition of [3H]WIN-35428 binding to dopamine transporter (DAT) of cynomolgus monkey caudate-putamen; format: tissue-based
[2] = molecular target: Sodium-dependent serotonin transporter; experiment: Inhibition of [3H]citalopram binding to serotonin transporter (SERT) of cynomolgus monkey caudate-putamen; format: tissue-based

Sequence of Sodium-dependent dopamine transporter (Q9GJT6 whole entry): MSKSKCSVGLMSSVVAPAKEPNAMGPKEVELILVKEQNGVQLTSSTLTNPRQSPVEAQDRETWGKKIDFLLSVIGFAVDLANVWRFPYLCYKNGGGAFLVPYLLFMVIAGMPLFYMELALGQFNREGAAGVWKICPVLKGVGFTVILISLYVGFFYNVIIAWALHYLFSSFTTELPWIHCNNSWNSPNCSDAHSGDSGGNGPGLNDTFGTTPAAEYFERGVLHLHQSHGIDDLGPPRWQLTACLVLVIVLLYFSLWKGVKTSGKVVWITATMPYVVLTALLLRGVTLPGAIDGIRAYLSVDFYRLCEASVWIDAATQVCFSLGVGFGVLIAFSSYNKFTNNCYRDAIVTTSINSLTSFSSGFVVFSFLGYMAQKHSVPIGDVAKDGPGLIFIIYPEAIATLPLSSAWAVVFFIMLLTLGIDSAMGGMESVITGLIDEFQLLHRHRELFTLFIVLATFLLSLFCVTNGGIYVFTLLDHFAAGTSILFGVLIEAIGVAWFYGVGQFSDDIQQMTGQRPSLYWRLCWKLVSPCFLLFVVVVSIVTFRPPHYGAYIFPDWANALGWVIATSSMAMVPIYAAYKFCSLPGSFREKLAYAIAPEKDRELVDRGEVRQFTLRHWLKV

SMILES	IC50 [1] [nM]	IC50 [2] [nM]
COC(=O)C1C2CCC(CC1c1ccc(Cl)c(Cl)c1)N2 (stereo not given)	0.7	1.24
COC(=O)C1C(c2ccc(Cl)c(Cl)c2)CC2CCC1N2C (stereo not given)	1.1	27.6
COC(=O)C1=C(c2ccc(Cl)c(Cl)c2)CC2CCC1N2C (stereo not given)	1.2	867
COC(=O)C1C2CCC(C2)CC1c1ccc(Cl)c(Cl)c1 (racemic)	14.3	180
COC(=O)C1=C(c2ccc(Cl)c(Cl)c2)CC2CCC1C2 (racemic)	7.1	5160
COC(=O)C1C2CCC(CC1c1ccc(Cl)c(Cl)c1)O2 (racemic; form 1)	3.4	
COC(=O)C1C2CCC(CC1c1ccc(Cl)c(Cl)c1)O2 (racemic; form 2)	3.1	
COC(=O)C1=C(c2ccc(Cl)c(Cl)c2)CC2CCC1O2 (stereo in doubt; 5b (R))	4.2	2120
COC(=O)C1=C(c2ccc(Cl)c(Cl)c2)CC2CCC1O2 (stereo in doubt; 5b (R/S))	12.8	1960
COC(=O)C1C2CCC(C2)CC1c1ccc(Cl)c(Cl)c1 (stereo in doubt; 6a (R/S))	9.6	33.4
COC(=O)C1C2CCC(CC1c1ccc(Cl)c(Cl)c1)O2 (stereo in doubt; 7b (R))	2.3	30.3
